From patent publication US20070128217A1 (priority 2003, published 2007)

What was measured:
[1] = tested on: antibodies in sera from SARS patients (sera 1a, 1b, 2, 6, 37, 62, London, SARS-yellow, SARS-green); assay type: binding, human; parameters: Binding of serum 6 to linear peptides of protein X1 of SARS-CoV Urbani / Binding of serum 37 to linear peptides of protein X1 of SARS-CoV Urbani / Binding of serum 6 to looped/cyclic peptide (PEPSCAN-ELISA) / Binding of serum 37 to looped/cyclic peptide (PEPSCAN-ELISA) / Binding of serum 37 to looped/cyclic peptides of protein X1 of SARS-CoV Urbani / Binding of serum 6 to linear peptides of protein X2 / Binding of serum 37 to linear peptides of protein X2 / Binding of serum 37 to looped/cyclic peptides of protein X2 of SARS-CoV Urbani / Binding of serum 6 to linear peptides of protein M of SARS-CoV Urbani / Binding of serum 37 to linear peptides of protein M of SARS-CoV Urbani / Binding of serum 6 to looped/cyclic peptides of protein M of SARS-CoV Urbani / Binding of serum 37 to looped/cyclic peptides of protein M of SARS-CoV Urbani / Binding of serum 6 to linear peptides of protein X3 of SARS-CoV Urbani / Binding of serum 37 to linear peptides of protein X3 of SARS-CoV Urbani / Binding of serum 37 to looped/cyclic peptides of protein X3 of SARS-CoV Urbani / Binding of serum 6 to linear peptides of protein X4 of SARS-CoV Urbani / Binding of serum 37 to linear peptides of protein X4 of SARS-CoV Urbani / Binding of serum 37 to looped/cyclic peptides of protein X4 of SARS-CoV Urbani / Binding of serum 6 to linear peptides of protein X5 of SARS-CoV Urbani / Binding of serum 37 to linear peptides of protein X5 of SARS-CoV Urbani / Binding of serum 37 to looped/cyclic peptides of protein X5 of SARS-CoV Urbani / Binding of serum 6 to linear peptides of protein N of SARS-CoV Urbani / Binding of serum 37 to linear peptides of protein N of SARS-CoV Urbani / Binding of serum 6 to linear peptide (PEPSCAN-ELISA) / Binding of serum 1a to looped/cyclic peptides of protein N of SARS-CoV Urbani / Binding of serum 1b to looped/cyclic peptides of protein N of SARS-CoV Urbani / Binding of serum 2 to looped/cyclic peptides of protein N of SARS-CoV Urbani / Binding of serum 6 to looped/cyclic peptides of protein N of SARS-CoV Urbani / Binding of serum 37 to looped/cyclic peptides of protein N of SARS-CoV Urbani / Binding of serum 62 to looped/cyclic peptides of protein N of SARS-CoV Urbani / Binding of serum London to looped/cyclic peptides of protein N of SARS-CoV Urbani / Binding of serum SARS-green to looped/cyclic peptides of protein N of SARS-CoV Urbani: unit not given here
[2] = tested on: control sera (pooled serum of ten healthy LUMC hospital workers; commercial negative donor pooled serum from the Dutch bloodbank); assay type: binding, human; parameters: Binding of Control serum LUMC to linear peptides / Binding of Control serum Blood-bank to linear peptides / Binding of Control serum LUMC to looped peptides / Binding of Control Serum Blood-Bank to Looped peptides / Binding of Control serum LUMC to linear peptides of the protein M of SARS-CoV Urbani / Binding of Control serum Blood-bank to linear peptides of the protein M of SARS-CoV Urbani / Binding of Control serum LUMC to looped peptides of the protein M of SARS-CoV Urbani / Binding of Control Serum Blood-Bank to Looped peptides of the protein M of SARS-CoV Urbani: unit not given here
[3] = tested on: rabbit serum obtained by immunizing a rabbit with the SARS-CoV strain Frankfurt 1; assay type: binding; parameters: Binding of a rabbit serum to linear peptides / Binding of a rabbit serum to looped peptides / Rabbit serum linear peptides / Rabbit serum looped peptides / Binding of a rabbit serum to linear peptides of protein N of SARS-CoV Urbani (Rabbit serum linear peptides) / Binding of a rabbit serum to looped/cyclic peptides of protein N of SARS-CoV Urbani (Rabbit serum looped peptides): unit not given here

Sequence: FAFACADGTRHTYQL
- Binding of serum 1a to linear peptides of protein X4 of SARS-CoV Urbani [1]: 0.7
- Binding of serum 1a to looped/cyclic peptides of protein X4 of SARS-CoV Urbani [1]: 0.8
- Binding of serum 1b to linear peptides of protein X4 of SARS-CoV Urbani [1]: 0.5
- Binding of serum 1b to looped/cyclic peptides of protein X4 of SARS-CoV Urbani [1]: 0.5
- Binding of serum 2 to linear peptides of protein X4 of SARS-CoV Urbani [1]: 0.3
- Binding of serum 2 to looped/cyclic peptides of protein X4 of SARS-CoV Urbani [1]: 0.9
- Binding of serum 6 to linear peptides of protein X4 of SARS-CoV Urbani [1]: 0.5
- Binding of serum 6 to looped/cyclic peptides of protein X4 of SARS-CoV Urbani [1]: 0.5
- Binding of serum 37 to linear peptides of protein X4 of SARS-CoV Urbani [1]: 0.6
- Binding of serum 37 to looped/cyclic peptides of protein X4 of SARS-CoV Urbani [1]: 0.6
- Binding of serum 62 to linear peptides of protein X4 of SARS-CoV Urbani [1]: 0.7
- Binding of serum 62 to looped/cyclic peptides of protein X4 of SARS-CoV Urbani [1]: 0.5
- Binding of serum London to linear peptides of protein X4 of SARS-CoV Urbani [1]: 0.6
- Binding of serum London to looped/cyclic peptides of protein X4 of SARS-CoV Urbani [1]: 0.2
- Binding of serum SARS-green to linear peptides of protein X4 of SARS-CoV Urbani [1]: 0.4
- Binding of serum SARS-green to looped/cyclic peptides of protein X4 of SARS-CoV Urbani [1]: 0.5
- Binding of serum SARS-yellow to linear peptides of protein X4 of SARS-CoV Urbani [1]: 0.2
- Binding of serum SARS-yellow to looped/cyclic peptides of protein X4 of SARS-CoV Urbani [1]: 0.4
- Binding of Control Serum Blood-Bank to Looped peptides [2]: 0.8
- Binding of Control serum Blood-bank to linear peptides [2]: 0.7
- Binding of Control serum LUMC to linear peptides [2]: 0.5
- Binding of Control serum LUMC to looped peptides [2]: 0.7
- Rabbit serum linear peptides [3]: 0.5
- Rabbit serum looped peptides [3]: 0.1

Sequence: AAGMEAQFLYLYALI
- Binding of serum 1a to linear peptides of protein X1 of SARS-CoV Urbani [1]: 0.7
- Binding of serum 1a to looped/cyclic peptide (PEPSCAN-ELISA) [1]: 0.6
- Binding of serum 1b to linear peptides of protein X1 of SARS-CoV Urbani [1]: 0.6
- Binding of serum 1b to looped/cyclic peptide (PEPSCAN-ELISA) [1]: 0.4
- Binding of serum 2 to linear peptides of protein X1 of SARS-CoV Urbani [1]: 0.6
- Binding of serum 2 to looped/cyclic peptide (PEPSCAN-ELISA) [1]: 0.5
- Binding of serum 6 to linear peptides of protein X1 of SARS-CoV Urbani [1]: 0.5
- Binding of serum 6 to looped/cyclic peptide (PEPSCAN-ELISA) [1]: 0.3
- Binding of serum 37 to linear peptides of protein X1 of SARS-CoV Urbani [1]: 0.5
- Binding of serum 37 to looped/cyclic peptide (PEPSCAN-ELISA) [1]: 0.6
- Binding of serum 62 to linear peptides of protein X1 of SARS-CoV Urbani [1]: 0.5
- Binding of serum 62 to looped/cyclic peptide (PEPSCAN-ELISA) [1]: 0.6
- Binding of serum London to linear peptides of protein X1 of SARS-CoV Urbani [1]: 0.2
- Binding of serum London to looped/cyclic peptide (PEPSCAN-ELISA) [1]: 0.2
- Binding of serum SARS-green to linear peptides of protein X1 of SARS-CoV Urbani [1]: 0.2
- Binding of serum SARS-green to looped/cyclic peptide (PEPSCAN-ELISA) [1]: 0.3
- Binding of serum SARS-yellow to linear peptides of protein X1 of SARS-CoV Urbani [1]: 0.3
- Binding of serum SARS-yellow to looped/cyclic peptide (PEPSCAN-ELISA) [1]: 0.4
- Binding of Control Serum Blood-Bank to Looped peptides [2]: 0.5
- Binding of Control serum Blood-bank to linear peptides [2]: 0.5
- Binding of Control serum LUMC to linear peptides [2]: 0.9
- Binding of Control serum LUMC to looped peptides [2]: 0.7
- Binding of a rabbit serum to linear peptides [3]: 0.1
- Binding of a rabbit serum to looped peptides [3]: 0.6

Sequence: RINWVTGGIAIAMAC
- Binding of serum 1a to linear peptides of protein M of SARS-CoV Urbani [1]: 0.7
- Binding of serum 1a to looped/cyclic peptides of protein M of SARS-CoV Urbani [1]: 0.7
- Binding of serum 1b to linear peptides of protein M of SARS-CoV Urbani [1]: 0.7
- Binding of serum 1b to looped/cyclic peptides of protein M of SARS-CoV Urbani [1]: 0.2
- Binding of serum 2 to linear peptides of protein M of SARS-CoV Urbani [1]: 0.6
- Binding of serum 2 to looped/cyclic peptides of protein M of SARS-CoV Urbani [1]: 0.6
- Binding of serum 6 to linear peptides of protein M of SARS-CoV Urbani [1]: 0.8
- Binding of serum 6 to looped/cyclic peptides of protein M of SARS-CoV Urbani [1]: 0.4
- Binding of serum 37 to linear peptides of protein M of SARS-CoV Urbani [1]: 0.5
- Binding of serum 37 to looped/cyclic peptides of protein M of SARS-CoV Urbani [1]: 0.7
- Binding of serum 62 to linear peptides of protein M of SARS-CoV Urbani [1]: 0.5
- Binding of serum 62 to looped/cyclic peptides of protein M of SARS-CoV Urbani [1]: 0.7
- Binding of serum London to linear peptides of protein M of SARS-CoV Urbani [1]: 0.5
- Binding of serum London to looped/cyclic peptides of protein M of SARS-CoV Urbani [1]: 0.2
- Binding of serum SARS-green to linear peptides of protein M of SARS-CoV Urbani [1]: 0.6
- Binding of serum SARS-green to looped/cyclic peptides of protein M of SARS-CoV Urbani [1]: 0.3
- Binding of serum SARS-yellow to linear peptides of protein M of SARS-CoV Urbani [1]: 0.3
- Binding of serum SARS-yellow to looped/cyclic peptides of protein M of SARS-CoV Urbani [1]: 0.7
- Binding of Control Serum Blood-Bank to Looped peptides of the protein M of SARS-CoV Urbani [2]: 0.5
- Binding of Control serum Blood-bank to linear peptides of the protein M of SARS-CoV Urbani [2]: 0.8
- Binding of Control serum LUMC to linear peptides of the protein M of SARS-CoV Urbani [2]: 0.8
- Binding of Control serum LUMC to looped peptides of the protein M of SARS-CoV Urbani [2]: 0.8
- Rabbit serum linear peptides [3]: 0.2
- Rabbit serum looped peptides [3]: 0.4
